From patent US10233184B2, “7-substituted sulfonimidoylpurinone compounds and derivatives for the treatment and prophylaxis of virus infection” (Hoffmann-La Roche Inc., priority 2016, dated 2019)
Values after ≈ are worked out from the molar mass of the structure shown. Like-named read-outs stand apart in the source and are kept apart here.

Assays:
[1] = Portal vein study: oral PK in PVC/CAC dual cannulated rat; format: in vivo; conditions: prodrug 10 mg/kg oral, analyte prodrug
Protocol: Surgery was performed under pentobarbital/isoflurane anesthesia. Briefly, after disinfecting the abdominal area with betadine and 70% isopropyl alcohol, a small abdominal mid-line incision was made. The cecum was pulled out and mesenteric vein was identified and isolated for about 5 mm vessel. A loose ligature was placed proximally and distal end of the vein was ligated. Make a small incision (just enough to allow the insertion of the catheter) on isolated vein and insert the PU catheter towards liver for appropriate length. The catheter was secured in place by tying the loose ligature around the cannulated vessel. The cecum was replaced into abdominal cavity. A hole was made in the right abdominal wall to make the end of catheter pass freely. The catheter was secured by suture on the abdominal wall. The abdominal muscle incision was closed with suture. A small incision was made in the scapular area to serve as the exit site of the catheter. The catheter was subcutaneously tunneled and exteriorized through the scapular incision. A fixed suture was placed in the scapular region. The patency of the catheter was checked and then exteriorized from the subcutaneous space to the dorsal neck region. After gently wiping the area, the abdominal cavity was sutured. The left carotid artery was then cannulated by inserting a PESO catheter. Both the exteriorized catheters were tied firmly on the dorsal neck region and fixed. The animals was then allowed to recover in its cage and used for study at least 3 days after surgery. All catheters were flushed once daily with heparinized saline to maintain patency. Animals were fasted overnight (n=3) and administered vial oral gavage (10 mg/kg, 10 mL/kg). Blood samples (60 μL) were collected simultaneously from the portal and carotid artery catheters at 0.083, 0.25, 0.5, 1, 2, 4, 7, 24 h. All blood samples will be transferred into microcentrifuge tubes containing 2 μL of K2EDTA (0.5M) as anti-coagulant and placed on wet ice. Then blood samples will be processed for plasma by centrifugation at approximately 4° C., 3000 g within half an hour of collection. Plasma samples will be stored in polypropylene tubes, quick frozen over dry ice and kept at −70±10° C. until LC/MS/MS analysis. Pharmacokinetic parameters (mean±SD, n=3) of prodrugs and active forms in portal and carotid samples following oral administration of prodrugs (10 mg/kg) in portal vein cannulated rat were detected and analyzed.

HBV = assay: In vivo antiviral efficacy in AAV-HBV mouse model; design: species or system C57BL/6 mice; conditions: for reduction in HBV DNA / reduction in HBsAg: serum
From the text: 4-6 week old male C57BL/6 mice, specific pathogen free, were purchased from Shanghai Laboratory Animal Center of Chinese Academy of Sciences (SLAC) and housed in an animal care facility in individually ventilated cages under controlled temperature and light conditions following the Institutional Animal Care guidelines. AAV-HBV virus was purchased from Beijing FivePlus Molecular Medicine Institute (Beijing, China). The recombinant virus carries 1.3 copies of the HBV genome packaged into AAV serotype 8 (AAV8) capsids. C57BL/6 mice were injected with 200 μL of the recombinant virus diluted in saline buffer through tail vein. On day 14, the mice were bled to measure HBV surface antigen (HBsAg) and HBV genomic DNA in the serum, and animals were then randomized into groups according to these HBV biomarkers.
Serum HBsAg and HBeAg were measured using CLIA kits (Autobio Diagnostics Co., Ltd., Zhengzhou, China) according to the manufacturer's instructions. The lower limit of detection for HBsAg was 0.05 IU/mL. Serum dilution of 500-fold was used to obtain values within the linear range of the standard curve.
Serum HBV DNA was extracted using a MagNA Pure 96 DNA and Viral NA Small Volume Kit (Roche) following the manufacturer's instructions. The DNA samples were analyzed by real-time quantitative PCR (qPCR) using a HBV-specific primer and probe set for specific amplification and detection of a 128 bp HBV genome region from the nucleotide 2969 to 3096. The sequences of the primers and probe are: […]
Anti-HBs in the serum was tested using Anti-HBs CLIA kits (Autobio Diagnostics Co., Ltd., Zhengzhou, China) and mouse anti-IgG conjugated with Biotin (0.5 mg/mL) from a Mabtech B Elispot kit. The anti-IgG Biotin was diluted in PBS with a final concentration of 1 μg/mL. 25 μL of mouse anti-IgG were mixed with serum samples in wells of the plate in the Anti-HBs CLIA kit for 1-hour incubation. Then wash the plate and add Streptavidin-HRP for 1-hour incubation at room temperature. After repeating the washing step, mix substrate A and B from the CLIA kit and add 50 μL of the mixture in each well. After 5-min incubation at room temperature, the plate was read on an Envision Plate Reader (PerkinElmer) to measure luminecence.
The mouse model with high level expression of both HBV DNA and HBsAg was generated by injecting C57BL/6 mice with a recombinant adeno-associated virus (AAV) carrying a replicable HBV genome (AAV-HBV). With long-lasting HBV viremia and fully competent immune system, the AAV-HBV mouse model was utilized to evaluate the antiviral efficacy of the TLR7 agonists following the study design as shown in Table 3.
Specifically, groups 2 and 3 were orally dosed with Example 43-A at 10 mg/kg every other day (QOD) and once weekly (QW), respectively, and the control group 1 received only Vehicle. At the dosing volume of 10 mL/kg, Example 43-A (1 mg/mL) was formulated as an inclusion complex with 2% Klucel LF, 0.5% TPGS, 0.09% Methylparabens, 0.01% Propylparabens in water. The animals were treated for a total of 42 days, and were submandibularly bled twice per week for serum collection throughout the study. The serum samples were subjected to analysis of HBV biomarkers.
The antiviral efficacy of Example 41-A was evaluated in the same AAV-HBV model following the study design in Table 4 with the same methods to measure HBV biomarkers as described in Example 51.
Specifically, groups 2, 3 and 4 were orally dosed with Example 41-A at 1, 3 and 10 mg/kg QOD respectively. Group 5 was treated with 10 mg/kg QW, while group 1 with only Vehicle. At the dosing volume of 10 mL/kg, Example 41-A (0.1, 0.3, and 1 mg/mL) was formulated as an inclusion complex with 2% Klucel LF, 0.5% TPGS, 0.09% Methylparabens, 0.01% Propylparabens in water. The animals were treated for a total of 42 days, and were submandibularly bled twice per week for serum collection throughout the study. The serum samples were subjected to analysis of HBV biomarkers. […]

LYSA solubility study = format: physicochemical; conditions: phosphate buffer, pH 6.5, aqueous buffer, thermodynamic from solid, 0.05M phosphate buffer pH 6.5, read-out: LYSA of Prodrugs
Method in brief: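 Samples from 10 mM DMSO stock were dried, redissolved in 0.05M phosphate buffer pH 6.5, stirred 1 h, shaken 2 h, left overnight and filtered. Filtrate and 1/10 dilution quantified by HPLC-UV; solubility in μg/mL, reported as greater-than when >80% of the maximum sample amount was in solution.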

[2] = carotid artery plasma, read-out: AUC0-2 (nM · h), prodrug, Carotid sampling
[3] = carotid artery plasma, read-out: Cmax (nM), prodrug, Carotid sampling
[4] = carotid artery plasma, read-out: Tmax (h), prodrug, Carotid sampling
[5] = portal vein plasma, read-out: AUC0-2 (nM · h), prodrug, Portal sampling
[6] = portal vein plasma, read-out: Cmax (nM), prodrug, Portal sampling
[7] = portal vein plasma, read-out: Tmax (h), prodrug, Portal sampling
[8] = AAV-HBV mice, 10 mg/kg PO QW, 42 days
[9] = AAV-HBV mice, 1, 3, 10 mg/kg PO QOD (all three doses)
[10] = AAV-HBV mice, 1, 3, 10 mg/kg PO QOD, 42 days
[11] = AAV-HBV mice, 1, 3, 10 mg/kg PO QOD, 42 days, all treated groups
[12] = AAV-HBV mice, 10 mg/kg PO QOD, 42 days

| SMILES | AUC(0-t) [1, 2] | Cmax [1, 3] | Tmax [1, 4] | AUC(0-t) [1, 5] | Cmax [1, 6] | Tmax [1, 7] | levels of HBV DNA and HBsAg at the treatment end (HBV; [8]) | levels of HBV DNA and HBsAg at the end of the 42-day treatment (HBV; [9]) | anti-HBsAg antibody level (HBV; AAV-HBV mice, 1, 3, 10 mg/kg PO QOD and 10 mg/kg QW, post treatment, versus Vehicle) | effect on HBV DNA and HBsAg (HBV; [10]) | solubility thermodynamic (LYSA solubility study) | anti-HBsAg antibody level (HBV; [11]) | levels of HBV DNA and HBsAg at the end of the 42-day treatment (HBV; AAV-HBV mice, 10 mg/kg PO QOD) | reduction in HBV DNA (HBV; [12]) | reduction in HBsAg (HBV; [12]) | reduction in HBV DNA (HBV; [8]) | reduction in HBsAg (HBV; [8]) | anti-HBsAg antibody level (HBV; AAV-HBV mice, 10 mg/kg PO, regardless of QOD and QW, 42 days) |
| --- | --- | --- | --- | --- | --- | --- | --- | --- | --- | --- | --- | --- | --- | --- | --- | --- | --- | --- |
| CCCN(C)C(=O)n1c(=O)n(Cc2ccc(Cl)cc2)c2nc([S@](=N)(=O)CC)nc(N)c21 [Example 41-A, 6-Amino-9-[(4-chlorophenyl)methyl]-2-[S(R)-ethylsulfonimidoyl]-N-methyl-8-oxo-N-propyl-purine-7-carboxamide] | 0.114 µM·h | 210 nM | 0.19 h | 2.19 µM·h | 9700 nM | 0.14 h | undetectable levels | below or close to the LLOQ | significantly higher levels of antibody against-HbsAg than Vehicle | dose-dependently reduced HBV DNA and HBsAg | 260 µg/mL (≈ 558 µM) |  |  |  |  |  |  |  |
| CCCN(C)C(=O)n1c(=O)n(Cc2ccc(Cl)cc2)c2nc([S@@](=N)(=O)CC)nc(N)c21 [Example 41-B, 6-Amino-9-[(4-chlorophenyl)methyl]-2-[S(S)-ethylsulfonimidoyl]-N-methyl-8-oxo-N-propyl-purine-7-carboxamide] | 0.0225 µM·h | 29.6 nM | 0.25 h | 1.44 µM·h | 7070 nM | 0.19 h |  | below the LLOQ |  | all effective to reduce HBV DNA and HBsAg | 250 µg/mL (≈ 537 µM) | high levels of anti-HBsAg antibody than the Vehicle group |  |  |  |  |  |  |
| CCN(C)C(=O)n1c(=O)n(Cc2ccc(Cl)cc2)c2nc([S@@](=N)(=O)CC)nc(N)c21 [Example 42-A, 6-Amino-9-[(4-chlorophenyl)methyl]-N-ethyl-2[S(S)-ethylsulfonimidoyl]-N-methyl-8-oxo-purine-7-carboxamide] | 0.286 µM·h | 286 nM | 0.22 h | 3.46 µM·h | 8920 nM | 0.19 h |  | below or close to the LLOQ |  | all effective to reduce HBV DNA and HBsAg | 225 µg/mL (≈ 498 µM) | significantly higher levels of anti-HBsAg antibody |  |  |  |  |  |  |
| CCCN(C)C(=O)n1c(=O)n(Cc2ccc(C)cc2)c2nc([S@](=N)(=O)CC)nc(N)c21 [Example 43-A, 6-Amino-2-[S(R)-ethylsulfonimidoyl]-N-methyl-8-oxo-N-propyl-9-(p-tolylmethyl)purine-7-carboxamide] | 0.124 µM·h | 191 nM | 0.22 h | 2.07 µM·h | 4110 nM | 0.28 h |  |  |  |  | 203 µg/mL (≈ 456 µM) |  | undetectable and below the lower limit of quantification (LLOQ) | > 3 log | > 2.8 log | > 2 log | > 2.8 log | induced a considerable level of anti-HBsAg antibody |
